Results on two substances are retold here after patent publication US20250057910A1, “Application of Polypeptide in Preparation of Product for Preventing or Treating Skin Injury Diseases” (Sichuan Gooddoctor Panxi Pharmaceutical Co., Ltd., priority 2021, published 2025).

Ends that are not written are not given here.

This test concerns SD rats. The test is described as follows: Healing of full-layer skin defect wound in SD rats. The class given is in vivo, rat. To be noted: SD rats, topical once a day, polypeptide 50 μg/cm^2, comparative polypeptide 1 41.90 μg/cm^2, comparative polypeptide 2 52.66 μg/cm^2, Mean ± SD, n = 8. As for the experimental part:
Experimental animals: SD male rats, SPF grade, 6 weeks old, weighing 180-220 g, from Beijing Vital River Laboratory Animal Technology Co., Ltd., with the experimental animal quality certification number of NO.110011220109610345, and the experimental animal use license number of SCXK (Beijing) 2021-0011.
Experimental method: SD rats were randomly divided into […] based on the body weight with 8 animals in each group, namely, vehicle group, the polypeptide group (50 μg/cm^2), comparative polypeptide 1 group (41.90 μg/cm^2) and comparative polypeptide 2 group (52.66 μg/cm^2). The amino acid sequence of comparative polypeptide 1 is Glu-Pro-Val-Pro-Leu; and the amino acid sequence of comparative polypeptide 2 is Pro-Ala-Ala-Glu-Pro-Val-Pro-Leu-Val-Lys-Gln-Glu.
After each experimental rat was anesthetized by intraperitoneal injection of 2% pentobarbital sodium (0.2 mL/100 g), a 2 cm^2 full-layer skin defect wound was prepared at each of both sides of the back spine. After hemostasis of the wound, the corresponding drug was administered at the wound locally by group. Each group was administered once a day, with a dosed volume of 72 μL/wound each time, for 14 consecutive days. After the administration, the wound was covered with a sterile vaseline gauze (5 cm*5 cm), and bandaged with multi-layer sterile gauzes. After the wound surgery, the wound was photographed, and the wound area was recorded as the baseline value (the wound was recorded as Day0). During the administration period, the areas of the wounds were photographed and measured 3 times a week, and the healing was observed.

Take “PAAEPVPLVKQE [Comparative polypeptide 2]”: the Wound healing rate worked out at 0.00 ± 0.00% (Day 0 (baseline)); 17.21 ± 22.78% (Day 3); 50.08 ± 16.55% (Day 5); 65.26 ± 14.46% (Day 7); 90.34 ± 3.04% (Day 10).
In the same order, the values of “Glu-Pro-Val-Pro-Leu (EPVPL; printed: Glu-Pro-Val-Pro-Leu) [Comparative polypeptide 1]” are 0.00 ± 0.00%, 21.13 ± 17.43%, 40.18 ± 17.43%, 68.84 ± 7.64% and 88.90 ± 8.40%.
